Data from US20230233483A1, “COMPOUND AND METHOD FOR THE TREATMENT OF CORONAVIRUSES” (Apteeus, priority 2020, published 2023).

Test system: SARS-CoV-2 of lineage B1 containing the D614G mutation; SARS-CoV-2 of lineage B1.1.7
Type: cell-based

CC(C)(C)CC(C)(C)c1ccc(O)c(Cc2ccc(Cl)cc2Cl)c1 [clofoctol, 2-(2,4-Dichlorobenzyl)-4-(1,1,3,3-tetramethylbutyl)phenol] was tested, and the “Genomic replication of variants of SARS-CoV-2 (RT-qPCR)” value was “inhibits the genomic replication of variants of SARS-CoV-2”.
